# Source: the supplement of paper PMC10307832
# Compound: Cc1cc([C@@H](C)Nc2ccccc2C(=O)O)c2nc(N3CCOCC3)cc(=O)n2c1 [AZD6482] + O=C(c1cc(Cc2n[nH]c(=O)c3ccccc23)ccc1F)N1CCN(C(=O)C2CC2)CC1 [Olaparib] (partner 8 µM)
# Assay: relative viability (nuclei count vs DMSO), 5 days (fraction); higher = more cells survive
# Conditions: first compound 0.08 µM
# Summary of the method: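 Each reported value is a median over duplicate plates. It expresses relative viability: treated-well nuclei count divided by vehicle-well nuclei count. Lung cancer cell lines in 1536-well plates were dosed by pin tool a day after seeding, alone with one drug or with a fixed anchor-drug dose plus five library-drug doses (not always all listed) in √10 steps, and nuclei were counted after 5 days.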
row,Cell Line,relative viability
1,HCC-44,1
2,NCI-H522,0.573
3,LU99A,0.259
4,BEN,0.915
5,HARA,0.685
6,SW 900,0.678
7,HCC-78,0.663
8,NCI-H322M,0.671
9,LCLC-97TM1,0.403
10,NCI-H2009,0.597
11,A-427,0.5
12,NCI-H441,0.604
13,NCI-H661,0.733
14,NCI-H1734,0.509
15,NCI-H460,0.335
16,NCI-H2347,0.449
17,NCI-H1395,0.406
18,201T,0.839
19,NCI-H1915,0.266
20,HCC-827,0.653
21,LXF-289,1.02
22,NCI-H23,0.26
23,NCI-H647,0.544

row,Cell Line,relative viability
1,CAL-12T,0.746
2,NCI-H1651,0.174
3,EPLC-272H,0.567
4,NCI-H2228,0.494
5,NCI-H1792,0.151
6,NCI-H1355,0.597
7,NCI-H3122,0.608
8,NCI-H1437,0.644
9,NCI-H1755,0.839
10,NCI-H2023,0.496
11,HCC-15,0.692
12,NCI-H1793,0.559
13,PC-14,0.247
14,EKVX,0.671
15,LC-2-ad,0.727
16,NCI-H1944,0.399
17,NCI-H1975,0.661
18,RERF-LC-KJ,0.787
19,ABC-1,0.602
20,NCI-H358,0.535
21,NCI-H650,0.315
22,PC-3 [JPC-3],1.02

# Same assay, conditions: first compound 0.253 µM
row,Cell Line,relative viability
1,HCC-44,1.11
2,NCI-H522,0.697
3,LU99A,0.273
4,BEN,0.934
5,HARA,1.01
6,SW 900,0.665
7,HCC-78,0.641
8,NCI-H322M,0.761
9,LCLC-97TM1,0.285
10,NCI-H2009,0.683
11,A-427,0.718
12,NCI-H441,0.525
13,NCI-H661,0.857
14,NCI-H1734,0.538
15,NCI-H460,0.394
16,NCI-H2347,0.536
17,SK-LU-1,0.452
18,NCI-H1395,0.429
19,201T,0.8
20,NCI-H1915,0.268
21,HCC-827,0.594
22,LXF-289,1.05
23,NCI-H23,0.371

row,Cell Line,relative viability
1,NCI-H647,0.482
2,CAL-12T,0.702
3,NCI-H1651,0.198
4,EPLC-272H,0.681
5,NCI-H2228,0.546
6,NCI-H1792,0.345
7,NCI-H1355,0.63
8,NCI-H3122,0.729
9,NCI-H1437,0.672
10,NCI-H1755,0.755
11,NCI-H2023,0.457
12,HCC-15,0.662
13,NCI-H1793,0.413
14,PC-14,0.337
15,EKVX,0.773
16,LC-2-ad,0.735
17,NCI-H1944,0.443
18,NCI-H1975,0.832
19,RERF-LC-KJ,0.963
20,ABC-1,0.464
21,NCI-H358,0.554
22,NCI-H650,0.364
23,PC-3 [JPC-3],1.11

# Same assay, conditions: first compound 0.8 µM
row,Cell Line,relative viability
1,HCC-44,1.1
2,NCI-H522,0.634
3,LU99A,0.255
4,BEN,0.946
5,HARA,0.943
6,SW 900,0.661
7,HCC-78,0.533
8,NCI-H322M,0.749
9,LCLC-97TM1,0.413
10,NCI-H2009,0.703
11,A-427,0.739
12,NCI-H441,0.541
13,NCI-H661,0.83
14,NCI-H1734,0.531
15,NCI-H460,0.435
16,NCI-H2347,0.496
17,SK-LU-1,0.474
18,NCI-H1395,0.501
19,201T,0.872
20,NCI-H1915,0.276
21,HCC-827,0.515
22,LXF-289,1.11
23,NCI-H23,0.411

row,Cell Line,relative viability
1,NCI-H647,0.554
2,CAL-12T,0.712
3,NCI-H1651,0.197
4,EPLC-272H,0.687
5,NCI-H2228,0.569
6,NCI-H1792,0.365
7,NCI-H1355,0.708
8,NCI-H3122,0.657
9,NCI-H1437,0.651
10,NCI-H1755,0.769
11,NCI-H2023,0.43
12,HCC-15,0.737
13,NCI-H1793,0.502
14,PC-14,0.405
15,EKVX,0.855
16,LC-2-ad,0.795
17,NCI-H1944,0.428
18,NCI-H1975,0.964
19,RERF-LC-KJ,0.886
20,ABC-1,0.881
21,NCI-H358,0.624
22,NCI-H650,0.337
23,PC-3 [JPC-3],1.08

# Same assay, conditions: first compound 2.53 µM
row,Cell Line,relative viability
1,HCC-44,1.15
2,NCI-H522,0.596
3,LU99A,0.28
4,BEN,0.875
5,HARA,0.683
6,SW 900,0.623
7,HCC-78,0.383
8,NCI-H322M,0.494
9,NCI-H2009,0.452
10,A-427,0.514
11,NCI-H661,0.719
12,NCI-H1734,0.365
13,NCI-H460,0.216
14,NCI-H2347,0.432
15,SK-LU-1,0.405
16,NCI-H1395,0.388
17,201T,0.727
18,NCI-H1915,0.236
19,HCC-827,0.432
20,LXF-289,0.986
21,NCI-H23,0.266
22,NCI-H647,0.373

row,Cell Line,relative viability
1,CAL-12T,0.595
2,NCI-H1651,0.201
3,EPLC-272H,0.463
4,NCI-H2228,0.466
5,NCI-H1792,0.234
6,NCI-H1355,0.522
7,NCI-H3122,0.585
8,NCI-H1437,0.599
9,NCI-H1755,0.583
10,NCI-H2023,0.353
11,HCC-15,0.697
12,NCI-H1793,0.306
13,PC-14,0.308
14,EKVX,0.469
15,LC-2-ad,0.64
16,NCI-H1944,0.337
17,NCI-H1975,0.648
18,RERF-LC-KJ,0.963
19,ABC-1,0.801
20,NCI-H358,0.282
21,NCI-H650,0.31
22,PC-3 [JPC-3],0.801

# Same assay, conditions: first compound 8 µM
row,Cell Line,relative viability
1,HCC-44,1.08
2,NCI-H522,0.577
3,LU99A,0.24
4,BEN,0.816
5,HARA,0.519
6,SW 900,0.616
7,HCC-78,0.416
8,NCI-H322M,0.701
9,LCLC-97TM1,0.244
10,NCI-H2009,0.619
11,A-427,0.66
12,NCI-H441,0.449
13,NCI-H661,0.729
14,NCI-H1734,0.509
15,NCI-H460,0.327
16,NCI-H2347,0.432
17,SK-LU-1,0.359
18,NCI-H1395,0.32
19,201T,0.848
20,NCI-H1915,0.258
21,HCC-827,0.996
22,LXF-289,0.918
23,NCI-H23,0.247

row,Cell Line,relative viability
1,NCI-H647,0.419
2,CAL-12T,0.543
3,NCI-H1651,0.187
4,EPLC-272H,0.294
5,NCI-H2228,0.569
6,NCI-H1792,0.138
7,NCI-H1355,0.564
8,NCI-H3122,0.616
9,NCI-H1437,0.557
10,NCI-H1755,0.601
11,NCI-H2023,0.379
12,HCC-15,0.768
13,NCI-H1793,0.406
14,PC-14,0.36
15,EKVX,0.595
16,LC-2-ad,0.803
17,NCI-H1944,0.388
18,NCI-H1975,0.624
19,RERF-LC-KJ,0.667
20,ABC-1,0.52
21,NCI-H358,0.52
22,NCI-H650,0.268
23,PC-3 [JPC-3],1.15
